Experimental data: patent US20110251194A1, “ANTINEOPLASTIC DERIVATIVES, PREPARATION THEREOF AND THERAPEUTIC USE THEREOF” (SANOFI-AVENTIS, priority 2008, published 2011)

Test system: not given
Assay: not given
Settings: not given

melting point [°C] | SMILES
245 | CCn1c(N)c(C(=O)NCCN2CCOCC2)c(=O)c2ccc(-c3ccc(NC(=O)NCc4cccnc4)cc3)nc21 [No. 30, 2-Amino-1-ethyl-4-oxo-7-[4-(3-pyridin-3-ylmethylureido)phenyl]-1,4-dihydro[1,8]naphthyridine-3-carboxylic acid (2-morpholin-4-ylethyl)amide]

Test system: HCT116 tumour line (ref. ATCC-CCL247)
Assay: MTS proliferation and cell viability test on the HCT116 tumour line
Type: cell-based
Settings: Homo sapiens, HCT-116, incubation of the tested compound for 72 h, 50% loss of proliferation and of cell viability
Procedure: The proliferation and the cell viability were determined in a test using 3-(4,5-dimethylthiazol-2-yl)-5-(3-carboxymethoxyphenyl)-2-(4-sulfophenyl)-2H-tetrazolium (MTS) according to Fujishita T. et al. Oncology 2003, 64(4), 399-406 (see page 401). In this test, the mitochondrial capacity of the living cells for converting the MTS into a coloured compound, after incubation of the tested compound for 72 h, is measured. IC50 (nM) denotes the concentration of compound which results in a 50% loss of proliferation and of cell viability.
The compounds of Table I were the subject of in vitro experimental tests on the HCT116 tumour line (ref. ATCC-CCL247).

IC50 [pM] | SMILES
< 1000 | CCOC(=O)c1c(N)n(CC)c2nc(-c3ccc(NC(=O)NCc4cccnc4)cc3)ccc2c1=O [No. 10, 2-Amino-1-ethyl-4-oxo-7-[4-(3-pyridin-3-ylmethylureido)phenyl]-1,4-dihydro[1,8]naphthyridine-3-carboxylic acid ethyl ester]
1900 | CCn1c(NCCN2CCN(C)CC2)c(C(=O)NCCN2CCN(C)CC2)c(=O)c2ccc(-c3ccc(NC(=O)NCc4cccnc4)cc3)nc21 [No. 46, 1-Ethyl-2-[2-(4-methyl-piperazin-1-yl)-ethylamino]-4-oxo-7-[4-(3-pyridin-3-ylmethylureido)phenyl]-1,4-dihydro[1,8]naphthyridine-3-carboxylic acid [2-(4-methylpiperazin-1-yl)ethyl]amide]
6000 | CCn1c(N)c(C(=O)NC)c(=O)c2cnc(-c3ccc(NC(=O)NCc4cccnc4)cc3)nc21 [No. 53, 7-Amino-8-ethyl-5-oxo-2-[4-(3-pyridin-3-ylmethylureido)phenyl]-5,8-dihydro-pyrido[2,3-d]pyrimidine-6-carboxylic acid methylamide]
190 | CCn1c(N)c(C(N)=O)c(=O)c2ccc(-c3ccc(NC(=O)NCc4cccnc4)cc3)cc21 [No. 56, 2-Amino-1-ethyl-4-oxo-7-[4-(3-pyridin-3-ylmethylureido)phenyl]-1,4-dihydroquinoline-3-carboxylic acid amide]
100 | CCn1c(NCCN2CCCC2)c(C(=O)NCCN2CCCC2)c(=O)c2ccc(-c3ccc(NC(=O)NCc4cccnc4)cc3)cc21 [No. 61, 1-Ethyl-4-oxo-7-[4-(3-pyridin-3-ylmethylureido)phenyl]-2-(2-pyrrolidin-1-ylethylamino)-1,4-dihydroquinoline-3-carboxylic acid (2-pyrrolidin-1-ylethyl)amide]

Second part, the molecule before the results:

SMILES | IC50 [pM]
CCn1c(N)c(C(=O)NC)c(=O)c2ccc(-c3ccc(NC(=O)NCc4cccnc4)cc3)nc21 [No. 1, 2-Amino-1-ethyl-4-oxo-7-[4-(3-pyridin-3-ylmethylureido)phenyl]-1,4-dihydro[1,8]naphthyridine-3-carboxylic acid methylamide] | 200 to 500
CCn1c(N)c(C(=O)NC)c(=O)c2ccc(-c3ccc(NC(=O)/C=C/c4cccnc4)cc3)nc21 [No. 7, 2-Amino-1-ethyl-4-oxo-7-[4-((E)-3-pyridin-3-yl-acryloylamino)phenyl]-1,4-dihydro[1,8]naphthyridine-3-carboxylic acid methylamide] | 2000
CCn1c(N)c(C(=O)O)c(=O)c2ccc(-c3ccc(NC(=O)NCc4cccnc4)cc3)nc21 [No. 13, 2-Amino-1-ethyl-4-oxo-7-[4-(3-pyridin-3-ylmethylureido)phenyl]-1,4-dihydro[1,8]naphthyridine-3-carboxylic acid] | 6000
CCn1c(N)c(C(=O)NC)c(=O)c2ccc(-c3ccc(NC(=O)NCc4cccnc4)cc3)cc21 [No. 27, 2-Amino-1-ethyl-4-oxo-7-[4-(3-pyridin-3-ylmethylureido)phenyl]-1,4-dihydroquinoline-3-carboxylic acid methylamide] | 100
CCn1c(N)c(C(=O)NCCN2CCOCC2)c(=O)c2ccc(-c3ccc(NC(=O)NCc4cccnc4)cc3)nc21 [No. 30, 2-Amino-1-ethyl-4-oxo-7-[4-(3-pyridin-3-ylmethylureido)phenyl]-1,4-dihydro[1,8]naphthyridine-3-carboxylic acid (2-morpholin-4-ylethyl)amide] | 100
CCn1c(NCCN2CCCC2C)c(C(=O)NCCN2CCCC2C)c(=O)c2ccc(-c3ccc(NC(=O)NCc4cccnc4)cc3)nc21 (centres unmarked) [No. 57, 1-Ethyl-2-[2-(2-methyl-pyrrolidin-1-yl)-ethylamino]-4-oxo-7-[4-(3-pyridin-3-ylmethylureido)phenyl]-1,4-dihydro[1,8]naphthyridine-3-carboxylic acid [2-(2-methylpyrrolidin-1-yl)ethyl]amide] | 260
CCn1c(NCC2CCCO2)c(C(=O)NCC2CCCO2)c(=O)c2ccc(-c3ccc(NC(=O)NCc4cccnc4)cc3)cc21 (centres unmarked) [No. 59, 1-Ethyl-4-oxo-7-[4-(3-pyridin-3-ylmethylureido)phenyl]-2-[(tetrahydrofuran-2-ylmethyl)amino]-1,4-dihydroquinoline-3-carboxylic acid (tetrahydrofuran-2-ylmethyl)amide] | 470
CCn1c(NCCN(C(C)C)C(C)C)c(C(=O)NCCN(C(C)C)C(C)C)c(=O)c2ccc(-c3ccc(NC(=O)NCc4cccnc4)cc3)cc21 [No. 60, 2-(2-Diisopropylaminoethylamino)-1-ethyl-4-oxo-7-[4-(3-pyridin-3-ylmethylureido)phenyl]-1,4-dihydroquinoline-3-carboxylic acid (2-diisopropylaminoethyl)amide] | 100
